Like-named read-outs stand apart in the source and are kept apart here.
Legend:
Assay type in all cases: cell-based
PC-3 = assay: Anti-proliferation assay, PC-3; details: Prostate Cancer
Description: (§1) Cells were maintained in a 1:1 mixture of Advanced DMEM/F12 (Gibco) supplemented with non-essential amino acids, L-glutamine (2 mM), streptomycin (500 μg/mL), penicillin (100 units/mL), and 10% FBS. Cells were grown to confluence in a humidified atmosphere (37° C., 5% CO2), seeded (2000/well, 100 μL) in 96-well plates, and allowed to attach overnight. Compound at varying concentrations in DMSO (1% DMSO final concentration) was added, and cells were returned to the incubator for 72 h. At 72 h, the number of viable cells was determined using an MTS/PMS cell proliferation kit (Promega) per the manufacturer's instructions. Cells incubated in 1% DMSO were used at 100% proliferation, and values were adjusted accordingly. IC50 values were calculated from separate experiments performed in triplicate using GraphPad Prism.

MDA1986 = assay: Anti-proliferation assay, MDA1986; details: HSNCC
Description: as §1

MDAMB231 = assay: Anti-proliferation assay, MDAMB231; details: Tri-Neg
Description: as §1

[1] = tested on: SKBr3 (estrogen receptor negative, Her2 over-expressing breast cancer cells); assay: Anti-proliferation assay (MTS/PMS, 72 h), SKBr3; details: Breast Cancer, read-out: IC50 SKBr3
Description: as §1
(§2) The anti-proliferative activity of these compounds is evaluated against two breast cancer cell lines, SKBr3 (estrogen receptor negative, Her2 over-expressing breast cancer cells) and MCF-7 (estrogen receptor positive breast cancer cells).

[2] = tested on: MCF-7 (estrogen receptor positive breast cancer cells); assay: Anti-proliferation assay (MTS/PMS, 72 h), MCF-7; details: Breast Cancer, read-out: IC50 MCF-3
Description: as §1, §2

A-549 = assay: Anti-proliferation assay, A-549
Description: as §1

JMAR = assay: Anti-proliferation assay, JMAR; details: HSNCC
Description: as §1

DRO81-1 = assay: Anti-proliferation assay, DRO81-1; details: Thyroid
Description: as §1

HCT-116 = assay: Anti-proliferation assay, HCT-116; details: Table 9, non-aryl ureas
Description: as §1

HMLE = assay: Anti-proliferation assay, HMLE (normal)
Description: as §1

MRC5 = assay: Anti-proliferation assay, MRC5 (normal)
Description: as §1

[3] = Homo sapiens, PC-3, Table 6, substituted phenyl ureas
[4] = MDA1986, Table 6, substituted phenyl ureas
[5] = Homo sapiens, MDA-MB-231, Table 6, substituted phenyl ureas
[6] = Homo sapiens, SK-BR-3, Table 6, substituted phenyl ureas
[7] = Homo sapiens, MCF7, Table 6, substituted phenyl ureas
[8] = Homo sapiens, A549, Table 6, substituted phenyl ureas
[9] = JMAR, Table 6, substituted phenyl ureas
[10] = Table 6, substituted phenyl ureas
[11] = HMLE, Table 6, substituted phenyl ureas
[12] = Homo sapiens, MRC5, Table 6, substituted phenyl ureas

SMILES: Cc1c(OC2CCN(C)CC2)ccc2cc(NC(=O)NC3CCCCC3)c(=O)oc12 [drawing 155]
- IC50 (PC-3; Table 9, non-aryl ureas): 1670 nM
- IC50 (MDA1986; Table 9, non-aryl ureas): > 25000 nM
- IC50 (MDAMB231; Table 9, non-aryl ureas): > 25000 nM
- IC50 ([1]; Table 9, non-aryl ureas): 3830 ± 330 nM
- IC50 ([2]; Table 9, non-aryl ureas): 3840 ± 310 nM
- IC50 (A-549; Table 9, non-aryl ureas): > 100000 nM
- IC50 (JMAR; Table 9, non-aryl ureas): > 25000 nM
- IC50 (DRO81-1; Table 9, non-aryl ureas): > 25000 nM
- IC50 (HCT-116): 9210 ± 6540 nM

SMILES: Cc1c(OC2CCN(C)CC2)ccc2cc(NC(=O)NC34CC5CC(CC(C5)C3)C4)c(=O)oc12 [drawing 156]
- IC50 (PC-3; Table 9, non-aryl ureas): 19 ± 3 nM
- IC50 (MDA1986; Table 9, non-aryl ureas): 5900 nM
- IC50 (MDAMB231; Table 9, non-aryl ureas): 3000 nM
- IC50 (A-549; Table 9, non-aryl ureas): 10 ± 10 nM
- IC50 (JMAR; Table 9, non-aryl ureas): 6200 nM
- IC50 (DRO81-1; Table 9, non-aryl ureas): 18700 nM
- IC50 (HCT-116): 82 ± 35 nM

SMILES: Cc1c(OC2CCN(C)CC2)ccc2cc(NC(=O)NC3CCCC3)c(=O)oc12 [drawing 167]
- IC50 (HMLE; Table 9, non-aryl ureas): > 25000 nM
- IC50 (MRC5; Table 9, non-aryl ureas): > 25000 nM

SMILES: Cc1c(OC2CCN(C)CC2)ccc2cc(NC(=O)NC3CCCCC3)c(=O)oc12 [drawing 168]
- IC50 (HMLE; Table 9, non-aryl ureas): > 25000 nM
- IC50 (MRC5; Table 9, non-aryl ureas): > 25000 nM

SMILES: Cc1c(OC2CCN(C)CC2)ccc2cc(NC(=O)NC34CC5CC(CC(C5)C3)C4)c(=O)oc12 [drawing 169]
- IC50 (HMLE; Table 9, non-aryl ureas): > 25000 nM
- IC50 (MRC5; Table 9, non-aryl ureas): 3800 nM

SMILES: Cc1c(OC2CCN(C)CC2)ccc2cc(NC(=O)NC(C)(C)C)c(=O)oc12 [drawing 170]
- IC50 (HMLE; Table 9, non-aryl ureas): > 25000 nM
- IC50 (MRC5; Table 9, non-aryl ureas): 21100 nM

SMILES: Cc1c(OC2CCN(C)CC2)ccc2cc(NC(=O)N3CCN(C)CC3)c(=O)oc12 [drawing 171]
- IC50 (HMLE; Table 9, non-aryl ureas): > 25000 nM
- IC50 (MRC5; Table 9, non-aryl ureas): > 25000 nM

SMILES: Cc1c(OC2CCN(C)CC2)ccc2cc(NC(=O)NCc3ccccc3)c(=O)oc12 [drawing 172]
- IC50 (HMLE; Table 9, non-aryl ureas): > 25000 nM
- IC50 (MRC5; Table 9, non-aryl ureas): 20900 nM

SMILES: Cc1c(OC2CCN(C)CC2)ccc2cc(NC(=O)N(C)Cc3ccccc3)c(=O)oc12 [drawing 173]
- IC50 (HMLE; Table 9, non-aryl ureas): > 25000 nM
- IC50 (MRC5; Table 9, non-aryl ureas): > 25000 nM

SMILES: Cc1c(OC2CCN(C)CC2)ccc2cc(NC(=O)N(Cc3ccccc3)Cc3ccccc3)c(=O)oc12 [drawing 174]
- IC50 (HMLE; Table 9, non-aryl ureas): 7100 nM
- IC50 (MRC5; Table 9, non-aryl ureas): 20900 nM

SMILES: Cc1c(OC2CCN(C)CC2)ccc2cc(NC(=O)NC(c3ccccc3)c3ccccc3)c(=O)oc12 [drawing 175]
- IC50 (HMLE; Table 9, non-aryl ureas): 1600 nM
- IC50 (MRC5; Table 9, non-aryl ureas): 15500 nM

SMILES: Cc1c(OC2CCN(C)CC2)ccc2cc(NC(=O)Nc3cccc(C(F)(F)F)c3)c(=O)oc12 [m-CF3, 1-(8-methyl-7-((1-methylpiperidin-4-yl)oxy)-2-oxo-2H-chromen-3-yl)-3-(3-(trifluoromethyl)phenyl)urea]
- IC50 (PC-3; [3]): 43 nM
- IC50 (MDA1986; [4]): 150 nM
- IC50 (MDAMB231; [5]): 550 nM
- IC50 [1, 6]: 260 nM
- IC50 [2, 7]: 280 nM
- IC50 (A-549; [8]): 46 nM
- IC50 (JMAR; [9]): 1700 nM
- IC50 (DRO81-1; [10]): 7300 nM
- IC50 (HMLE; [11]): 16800 nM
- IC50 (MRC5; [12]): 1600 nM

SMILES: COc1cccc(NC(=O)Nc2cc3ccc(OC4CCN(C)CC4)c(C)c3oc2=O)c1 [m-OCH3]
- IC50 [1, 10]: 1150 nM
- IC50 [2, 10]: 960 nM

SMILES: Cc1c(OC2CCN(C)CC2)ccc2cc(NC(=O)Nc3cccc(Oc4ccccc4)c3)c(=O)oc12 [m-phenoxyl, 1-(8-methyl-7-((1-methylpiperidin-4-yl)oxy)-2-oxo-2H-chromen-3-yl)-3-(3-phenoxyphenyl)urea]
- IC50 (PC-3; [3]): 2160 nM
- IC50 (MDA1986; [4]): 570 nM
- IC50 (MDAMB231; [5]): 280 nM
- IC50 [1, 6]: 190 nM
- IC50 [2, 7]: 280 nM
- IC50 (A-549; [8]): 1020 nM
- IC50 (JMAR; [9]): 2400 nM
- IC50 (DRO81-1; [10]): 3100 nM
- IC50 (HMLE; [11]): 5200 nM
- IC50 (MRC5; [12]): 2200 nM

SMILES: Cc1c(OC2CCN(C)CC2)ccc2cc(NC(=O)Nc3ccc(O)cc3)c(=O)oc12 [p-OH, 1-(4-hydroxyphenyl)-3-(8-methyl-7-((1-methylpiperidin-4-yl)oxy)-2-oxo-2H-chromen-3-yl)urea]
- IC50 [1, 6]: 1380 nM
- IC50 [2, 7]: 1340 nM

From patent US10030006B2, “Coumarin based Hsp90 inhibitors with urea and ether substituents” (University of Kansas, priority 2013, dated 2018)
